Results as given in patent publication US20230192700A1, “PYRAZOLOPYRAZINES ACTING ON CANCERS VIA INHIBITION OF CDK12” (Bayer Aktiengesellschaft, priority 2020, published 2023).
Read-outs that look alike come from different tables or passages of the source.

Experiments:
CDK12/CyclinK = molecular target: T1, CDK12/CyclinK (Homo sapiens, UniProt Q9NYV4); test: CDK12/CycK high ATP kinase assay (TR-FRET); type: biochemical; conditions: 2 mM ATP (high ATP); median; read-out: CDK12/CyclinK, 2 mM ATP (high ATP), IC50 - [mol/l] (median)
T1 construct: His-CDK12 (aa Q696-S1082); made in house; host or cells: Hi-5 insect cells (baculovirus co-infection with CycK and yeast CAK1)
T1 sequence (Q9NYV4 with tags, fused parts or gaps): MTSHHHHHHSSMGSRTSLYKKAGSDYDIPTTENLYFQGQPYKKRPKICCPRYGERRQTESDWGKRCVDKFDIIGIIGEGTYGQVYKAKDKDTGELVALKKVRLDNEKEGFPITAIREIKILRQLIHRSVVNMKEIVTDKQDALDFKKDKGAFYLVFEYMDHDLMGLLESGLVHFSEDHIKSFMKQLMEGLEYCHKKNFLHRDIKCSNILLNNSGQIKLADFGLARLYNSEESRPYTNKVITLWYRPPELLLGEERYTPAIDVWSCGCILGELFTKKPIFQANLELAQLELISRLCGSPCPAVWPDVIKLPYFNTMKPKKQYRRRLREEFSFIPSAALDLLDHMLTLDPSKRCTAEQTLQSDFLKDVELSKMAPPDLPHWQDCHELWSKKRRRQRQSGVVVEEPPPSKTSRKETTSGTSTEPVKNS
T1 sequence (O75909 with tags, fused parts or gaps partner limits assumed): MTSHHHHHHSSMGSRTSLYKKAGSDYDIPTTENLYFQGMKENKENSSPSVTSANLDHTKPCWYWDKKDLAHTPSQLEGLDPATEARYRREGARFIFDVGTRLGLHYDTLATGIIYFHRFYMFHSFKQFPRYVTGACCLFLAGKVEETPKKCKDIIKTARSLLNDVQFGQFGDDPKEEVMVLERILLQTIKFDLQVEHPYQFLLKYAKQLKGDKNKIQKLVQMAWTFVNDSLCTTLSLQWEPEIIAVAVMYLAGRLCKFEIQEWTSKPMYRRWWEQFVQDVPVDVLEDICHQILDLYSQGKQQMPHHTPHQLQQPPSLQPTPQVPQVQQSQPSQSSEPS
Description: 2.2 CDK12/CycK high ATP Kinase Assay
In the context of the present invention, the term “IC50 CDK12 hATP” refers to the ICso values obtained according to the assay described in this section (2.2) herein below, i.e. the IC50 values for the inhibition of CDK12 at high ATP.
CDK12/CycK -inhibitory activity of compounds of the present invention at 2 millimol/L adenosine-tri-phosphate (ATP) was quantified employing the TR-FRET (TR-FRET=Time Resolved Fluorescence Energy Transfer) based CDK12/CycK activity inhibition assay as described in the following paragraphs.
A complex of human recombinant CDK12 and human recombinant CycK (both N-terminally His-tagged, expression and purification as described above) was used as enzyme. As substrate for the kinase reaction biotinylated peptide biotin-Ahx-KFELLPTPPLSPSRRSGL (C-terminus in amid form) was used which can be purchased e.g. form the company Biosyntan (Berlin-Buch, Germany).
For the assay 50 nanoL of a 100 fold concentrated solution of the test compound in DMSO was pipetted into either a black low volume 384 well microtiter plate or a black 1536 well microtiter plate (both Greiner Bio-One, Frickenhausen, Germany), 2 microL of a solution of CDK12/CycK in aqueous assay buffer [25 millimol/L HEPES pH 7.5, 20 millimol/L MgCl2, 5 millimol/L β-glycerophosphate, 2 millimol/L EGTA, 1.0 millimol/L dithiothreitol, 0.01% (v/v) Nonidet-P40 (Sigma), 0.01% (w/v) bovine serum albumin] were added and the mixture was incubated for 15 min at 22° C. to allow pre-binding of the test compounds to the enzyme before the start of the kinase reaction. Then the kinase reaction was started by the addition of 3 microL of a solution ATP (3.33 millimol/L=>final conc. in the 5 microL assay volume is 2 millimol/L) and substrate (1.67 micromol/L=>final conc. in the 5 microL assay volume is 1 micromol/L) in assay buffer and the resulting mixture was incubated for a reaction time of 60 min at 22° C. The concentration of CDK12/CycK was adjusted depending of the activity of the enzyme lot and was chosen appropriate to have the assay in the linear range, typical concentrations were about 0.75 nanomol/L. The reaction was stopped by the addition of 3 microL of a solution of TR-FRET detection reagents (125 nanomol/L streptavidine-XL665 [Cisbio Bioassays, Codolet, France] and 0.67 nanomol/L anti-Phospho-c-Myc (Ser 62) (E1J4K)-antibody from Cell Signalling [#13748] and 2 nanomol/L LANCE EU-W1024 labeled anti-rabbit IgG antibody [Perkin-Elmer, product no. 0083]) in an aqueous EDTA-solution (133 millimol/L EDTA, 0.27% (w/v) bovine serum albumin in 66.7 millimol/L HEPES pH 7.5).
The resulting mixture was incubated 1 h at 22° C. to allow the formation of complex between the phosphorylated biotinylated peptide and the detection reagents. Subsequently the amount of phosphorylated substrate was evaluated by measurement of the resonance energy transfer from the Eu-chelate to the streptavidine-XL. Therefore, the fluorescence emissions at 620 nm and 665 nm after excitation at 350 nm was measured in a TR-FRET reader, e.g. a Pherastar FS (BMG Labtechnologies, Offenburg, Germany) or a Viewlux (Perkin-Elmer). The ratio of the emissions at 665 nm and at […] was taken as the measure for the amount of phosphorylated substrate. The data were normalised (enzyme reaction without inhibitor=0% inhibition, all other assay components but no enzyme=100% inhibition).

[1] = test system: BRCA1 mRNA expression in MDA-MB-231 cells; test: qRT-PCR assay: inhibition of BRCA1 mRNA expression in MDA-MB-231 cells; type: cell-based, human; conditions: 24 h exposure, BRCA1 mRNA normalised to GAPDH, median, read-out: RTqPCR-MDA-MB-231 IC50 [mol/l] BRCA1 (median)
Description: 3. qRT-PCR Assay: BRCA1, ATR, MCL1 in MDA-MB-231, CAL-120
Tissue cultured human MDA-MB-231 human breast cancer cells were plated in 500 microL per well at 200,000 cells/well in a 24 well microtiter plate. After 24 h, the cells were exposed continuously for 24 h to test substances (substances were added with Tecan HP D300 Dispenser). RNA was prepared using Qiagen RNeasy MiniKit (#74106), RNA was quantified using a NanoDrop Equipment, and 600 nano gamms of RNA was coverted to cDNA using a SuperScript VILO kit (Thermofisher #11755050) followed by qPCR amplification. BRCA1 and ATR gene expression was measured by RT-qPCR and normalised to GAPDH housekeeping gene expression. qPCR primer sets have been purchased from Thermo Fisher Scientific/Applied Biosystems: BRCA1, # Hs 01556193; ATR, #Hs 00992123; GAPDH, #Hs 03929097.

SMILES	IC50 (CDK12/CyclinK)	IC50 ([1]; Homo sapiens, MDA-MB-231, 24 h)	IC50 [1]
Cc1c(Cl)ccc2[nH]c(CNc3nn(C4CCN(C)CC4)c4nc(C5CC5)cnc34)nc12 [Example 21, N-[(5-chloro-4-methyl-1H-benzimidazol-2-yl)methyl]-6-cyclopropyl-1-(1-methylpiperidin-4-yl)-1H-pyrazolo[3,4-b]pyrazin-3-amine]	> 20000 nM	26.1 nM	
CN1CCCC(n2nc(NCc3nc4ccccc4[nH]3)c3ncc(C4CC4)nc32)CC1 (single isomer, unassigned) [Example 38, (−) or (+)-N-[(1H-benzimidazol-2-yl)methyl]-6-cyclopropyl-1-[(4R*)-1-methylazepan-4-yl]-1H-pyrazolo[3,4-b]pyrazin-3-amine]	> 20000 nM		21.8 nM
c1ccc2[nH]c(CNc3nn(C4CCOC4)c4nc(C5CC5)cnc34)nc2c1 (single isomer, unassigned) [Example 18, (-) or (+) -N-[(1H-benzimidazol-2-yl)methyl]-6-cyclopropyl-1-[oxolan-3-yl]-1H-pyrazolo[3,4-b]pyrazin-3-amine]	> 20000 nM		> 10.7 nM
CC(C)(O)C1CC(n2nc(NCc3nc4ccccc4[nH]3)c3ncc(C4CC4)nc32)C1 (mixture of isomers) [Example 48, 2-[cis/trans-3-(3-{[(1H-benzimidazol-2-yl)methyl]amino}-6-cyclopropyl-1H-pyrazolo[3,4-b]pyrazin-1-yl)cyclobutyl]propan-2-ol]	13700 nM	39.5 nM	
O[C@H]1C[C@H](n2nc(NCc3nc4ccccc4[nH]3)c3ncc(C4CC4)nc32)C1 [Example 43, trans-3-(3-{[(1H-benzimidazol-2-yl)methyl]amino}-6-cyclopropyl-1H-pyrazolo[3,4-b]pyrazin-1-yl)cyclobutan-1-ol]		28.9 nM	
OC[C@H]1C[C@@H](n2nc(NCc3nc4ccccc4[nH]3)c3ncc(C4CC4)nc32)C1 [Example 47, [cis-3-(3-{[(1H-benzimidazol-2-yl)methyl]amino}-6-cyclopropyl-1H-pyrazolo[3,4-b]pyrazin-1-yl)cyclobutyl]methanol]	12800 nM	13.8 nM	
Cc1c(F)ccc2[nH]c(CNc3nn(C4CCN(C)CC4)c4nc(C5CC5)cnc34)nc12 [Example 26, 6-cyclopropyl-N-[(5-fluoro-4-methyl-1H-benzimidazol-2-yl)methyl]-1-(1-methylpiperidin-4-yl)-1H-pyrazolo[3,4-b]pyrazin-3-amine]	> 20000 nM	20 nM	
CN1CCC(n2nc(NCc3nc4ccccc4[nH]3)c3ncc(C4CC4)nc32)CC1 [Example 1, N-[(1H-benzimidazol-2-yl)methyl]-6-cyclopropyl-1-(1-methylpiperidin-4-yl)-1H-pyrazolo[3,4-b]pyrazin-3-amine]	> 20000 nM	13.7 nM	
OC[C@H]1C[C@H](n2nc(NCc3nc4ccccc4[nH]3)c3ncc(C4CC4)nc32)C1 [Example 46, [trans-3-(3-{[(1H-benzimidazol-2-yl)methyl]amino}-6-cyclopropyl-1H-pyrazolo[3,4-b]pyrazin-1-yl)cyclobutyl]methanol]	> 20000 nM	4.02 nM	
CN1CCC(n2nc(NCc3nc4cc(F)c(F)cc4[nH]3)c3ncc(C4CC4)nc32)CC1 [Example 30, 6-cyclopropyl-N-[(5,6-difluoro-1H-benzimidazol-2-yl)methyl]-1-(1-methylpiperidin-4-yl)-1H-pyrazolo[3,4-b]pyrazin-3-amine]	> 20000 nM	11.7 nM	
c1ccc2[nH]c(CNc3nn(C4C[C@H]5CC[C@@H](C4)O5)c4nc(C5CC5)cnc34)nc2c1 (stereo partly drawn) [Example 45, exo/endo-N-[(1H-benzimidazol-2-yl)methyl]-6-cyclopropyl-1-(8-oxabicyclo[3.2.1]octan-3-yl)-1H-pyrazolo[3,4-b]pyrazin-3-amine]		7.6 nM	
CC1CC(n2nc(NCc3nc4ccccc4[nH]3)c3ncc(C4CC4)nc32)CCO1 (racemic) [Example 44, (±)-cis/trans-N-[(1H-benzimidazol-2-yl)methyl]-6-cyclopropyl-1-(2-methyloxan-4-yl)-1H-pyrazolo[3,4-b]pyrazin-3-amine]		24.2 nM	
CC1COCCC1n1nc(NCc2nc3ccccc3[nH]2)c2ncc(C3CC3)nc21 (racemic) [Example 42, (±)-cis/trans-N-[(1H-benzimidazol-2-yl)methyl]-6-cyclopropyl-1-(3-methyloxan-4-yl)-1H-pyrazolo[3,4-b]pyrazin-3-amine]	> 20000 nM		
c1ccc2[nH]c(CNc3nn(C4CCOC4)c4nc(C5CC5)cnc34)nc2c1 (racemic) [Example 10, (±)-N-[(1H-benzimidazol-2-yl)methyl]-6-cyclopropyl-1-[oxolan-3-yl]-1H-pyrazolo[3,4-b]pyrazin-3-amine]	> 20000 nM		

The next lines start with results.

IC50 (CDK12/CyclinK)	SMILES	IC50 ([1]; Homo sapiens, MDA-MB-231, 24 h)	IC50 [1]
> 20000 nM	COC(C)(C)CCn1nc(NCc2nc3ccccc3[nH]2)c2ncc(C3CC3)nc21 [Example 67, N-[(1H-benzimidazol-2-yl)methyl]-6-cyclopropyl-1-(3-methoxy-3-methylbutyl)-1H-pyrazolo[3,4-b]pyrazin-3-amine]	78 nM	
> 20000 nM	COCCCn1nc(NCc2nc3ccccc3[nH]2)c2ncc(C3CC3)nc21 [Example 61, N-[(1H-benzimidazol-2-yl)methyl]-6-cyclopropyl-1-(3-methoxypropyl)-1H-pyrazolo[3,4-b]pyrazin-3-amine]		
> 20000 nM	CC1(C)CC(n2nc(NCc3nc4ccccc4[nH]3)c3ncc(C4CC4)nc32)CC(C)(C)O1 [Example 52, N-[(1H-benzimidazol-2-yl)methyl]-6-cyclopropyl-1-(2,2,6,6-tetramethyloxan-4-yl)-1H-pyrazolo[3,4-b]pyrazin-3-amine]		
> 20000 nM	c1ccc2[nH]c(CNc3nn(C4COC4)c4nc(C5CC5)cnc34)nc2c1 [Example 55, N-[(1H-benzimidazol-2-yl)methyl]-6-cyclopropyl-1-(oxetan-3-yl)-1H-pyrazolo[3,4-b]pyrazin-3-amine]		
11100 nM	c1ccc2[nH]c(CNc3nn(C4CC5(COC5)C4)c4nc(C5CC5)cnc34)nc2c1 [Example 54, N-[(1H-benzimidazol-2-yl)methyl]-6-cyclopropyl-1-(2-oxaspiro[3.3]heptan-6-yl)-1H-pyrazolo[3,4-b]pyrazin-3-amine]		
> 20000 nM	COCCC(C)n1nc(NCc2nc3ccccc3[nH]2)c2ncc(C3CC3)nc21 (racemic) [Example 57, (±)-N-[(1H-benzimidazol-2-yl)methyl]-6-cyclopropyl-1-(4-methoxybutan-2-yl)-1H-pyrazolo[3,4-b]pyrazin-3-amine]		
> 20000 nM	c1ccc2[nH]c(CNc3nn(C4CCC4)c4nc(C5CC5)cnc34)nc2c1 [Example 49, N-[(1H-benzimidazol-2-yl)methyl]-1-cyclobutyl-6-cyclopropyl-1H-pyrazolo[3,4-b]pyrazin-3-amine]		
